Where only a bound is given, the exact number is not on record here.

In general, DC50 refers to the midpoint of the concentration-degradation curve. As usually defined, the Dmax is the greatest extent of degradation seen.

For this experiment, the target named is IKZF2 (Homo sapiens (Human), UniProt Q96SW2+Q9UKS7). Kind of experiment: IKZF2 HiBiT Assay (Jurkat-IKZF2-HiBiT cell line). The experiment is classed as cell-based. The following applies: Jurkat-IKZF2-HiBiT cells, 24 hours; for DC50: read-out: HiBit assay degradation analysis DC50; for Dmax: read-out: HiBit assay degradation analysis Dmax. The method, boiled down:
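Jurkat cells carrying HiBiT-tagged IKZF2 were exposed to serially diluted compound for 24 h at 37 °C. Remaining IKZF2 was measured by Nano-Glo HiBiT lytic luminescence after 10-20 min at room temperature. Signal was normalized to DMSO, and IC50 came from a four-parameter variable-slope fit.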

Chain of IKZF2 (Q9UKS7 whole entry): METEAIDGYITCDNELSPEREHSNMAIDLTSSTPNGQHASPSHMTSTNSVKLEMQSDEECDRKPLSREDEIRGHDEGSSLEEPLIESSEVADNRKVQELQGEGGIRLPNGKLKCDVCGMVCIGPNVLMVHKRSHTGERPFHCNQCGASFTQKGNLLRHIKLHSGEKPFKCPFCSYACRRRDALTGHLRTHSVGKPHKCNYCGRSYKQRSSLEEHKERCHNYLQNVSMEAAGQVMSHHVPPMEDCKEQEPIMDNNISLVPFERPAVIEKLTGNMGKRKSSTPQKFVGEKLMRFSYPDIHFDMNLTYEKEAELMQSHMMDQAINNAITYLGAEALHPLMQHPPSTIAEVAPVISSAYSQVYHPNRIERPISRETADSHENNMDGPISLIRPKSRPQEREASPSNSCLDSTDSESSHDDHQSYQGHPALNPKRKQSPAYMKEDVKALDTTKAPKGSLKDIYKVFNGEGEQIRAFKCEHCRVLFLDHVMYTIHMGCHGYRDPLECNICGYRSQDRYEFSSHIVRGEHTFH
Chain of IKZF2 (Q96SW2 whole entry): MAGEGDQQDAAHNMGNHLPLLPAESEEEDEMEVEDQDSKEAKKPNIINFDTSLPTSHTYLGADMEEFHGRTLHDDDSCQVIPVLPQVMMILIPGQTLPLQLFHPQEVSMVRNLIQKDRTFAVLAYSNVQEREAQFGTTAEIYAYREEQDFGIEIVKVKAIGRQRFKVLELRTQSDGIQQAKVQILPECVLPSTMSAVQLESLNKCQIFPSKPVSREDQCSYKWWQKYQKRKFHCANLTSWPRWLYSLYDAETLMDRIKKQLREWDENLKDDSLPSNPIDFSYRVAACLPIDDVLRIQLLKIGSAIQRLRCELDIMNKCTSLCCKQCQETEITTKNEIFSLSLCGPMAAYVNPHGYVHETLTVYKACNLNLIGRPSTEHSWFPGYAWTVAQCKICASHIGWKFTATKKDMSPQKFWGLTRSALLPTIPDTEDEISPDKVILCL
Chain of IKZF2 (Q16531 whole entry partner): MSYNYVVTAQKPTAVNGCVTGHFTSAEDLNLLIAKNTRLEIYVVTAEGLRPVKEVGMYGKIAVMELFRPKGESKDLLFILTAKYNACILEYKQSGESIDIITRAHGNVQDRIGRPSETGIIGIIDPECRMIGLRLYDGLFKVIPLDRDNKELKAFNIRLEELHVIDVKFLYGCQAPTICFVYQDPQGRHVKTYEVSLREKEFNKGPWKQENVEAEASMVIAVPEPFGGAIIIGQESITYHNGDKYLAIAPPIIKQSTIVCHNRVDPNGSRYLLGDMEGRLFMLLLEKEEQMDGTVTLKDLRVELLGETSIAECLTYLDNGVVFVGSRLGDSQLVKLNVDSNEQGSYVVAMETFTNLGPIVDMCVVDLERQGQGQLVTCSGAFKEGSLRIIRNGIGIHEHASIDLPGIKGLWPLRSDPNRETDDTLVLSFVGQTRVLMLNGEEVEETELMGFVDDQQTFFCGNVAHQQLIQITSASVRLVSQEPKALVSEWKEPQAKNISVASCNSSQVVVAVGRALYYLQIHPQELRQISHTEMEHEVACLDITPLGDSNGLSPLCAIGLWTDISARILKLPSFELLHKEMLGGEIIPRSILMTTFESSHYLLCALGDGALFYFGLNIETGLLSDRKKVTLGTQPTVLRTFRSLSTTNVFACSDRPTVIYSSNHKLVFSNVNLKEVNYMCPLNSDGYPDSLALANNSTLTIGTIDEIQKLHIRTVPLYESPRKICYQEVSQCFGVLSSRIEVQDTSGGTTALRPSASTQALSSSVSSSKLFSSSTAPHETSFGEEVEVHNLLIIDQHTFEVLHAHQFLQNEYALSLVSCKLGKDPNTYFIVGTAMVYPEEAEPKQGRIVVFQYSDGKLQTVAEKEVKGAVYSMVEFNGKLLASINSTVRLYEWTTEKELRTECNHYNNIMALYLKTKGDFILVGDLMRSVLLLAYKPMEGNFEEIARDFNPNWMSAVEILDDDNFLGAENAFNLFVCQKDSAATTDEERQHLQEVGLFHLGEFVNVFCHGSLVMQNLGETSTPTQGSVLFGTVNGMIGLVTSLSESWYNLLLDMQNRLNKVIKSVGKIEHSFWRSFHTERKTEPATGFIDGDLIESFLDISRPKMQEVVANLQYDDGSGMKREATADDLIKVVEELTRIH

For `O=C1CCC(N2Cc3c(ccc4c3OCC43CCN(C[C@H]4C[C@@H]4c4ccccc4)CC3)C2=O)C(=O)N1` (stereo partly drawn) [Compound A332, 3-(6-oxo-1′-(((1S,2S)-2-phenylcyclopropyl)methyl)-6,8-dihydro-2H,7H-spiro[furo[2,3-e]isoindole-3,4′-piperidin]-7-yl)piperidine-2,6-dione], the DC50 is above 500 nM.

Consider `CS(=O)(=O)c1cccc(CN2CCC3(CC2)COc2c3ccc3c2CN(C2CCC(=O)NC2=O)C3=O)c1` (stereo not drawn) [Compound A235, 3-(1′-(3-(methylsulfonyl)benzyl)-6-oxo-6,8-dihydro-2H,7H-spiro[furo[2,3-e]isoindole-3,4′-piperidin]-7-yl)piperidine-2,6-dione], for which the DC50 was above 500 nM and the Dmax is below 40%.

Turning to `O=C1CCC(N2Cc3c(ccc4c3OCC43CCN(Cc4cccc5c4COC5)CC3)C2=O)C(=O)N1` (stereo not drawn) [Compound A113, 3-(1′-((1,3-dihydroisobenzofuran-4-yl)methyl)-6-oxo-6,8-dihydro-2H,7H-spiro[furo[2,3-e]isoindole-3,4′-piperidin]-7-yl)piperidine-2,6-dione], the DC50 was below 50 nM and the maximal degradation (Dmax) is 60 to 80%.

With `O=C1CCC(N2Cc3c(ccc4c3OCC43CCN(Cc4cccc(C(F)F)c4)CC3)C2=O)C(=O)N1` (stereo not drawn) [Compound A94, 3-(1′-(3-(difluoromethyl)benzyl)-6-oxo-6,8-dihydro-2H,7H-spiro[furo[2,3-e]isoindole-3,4′-piperidin]-7-yl)piperidine-2,6-dione], the DC50 is 200 to 500 nM and the greatest degradation seen (Dmax) was in the range of 40 to 60%.

As for `O=C1CC[C@H](N2Cc3c(ccc4c3OCC43CCN(Cc4cnn(S(=O)(=O)c5cccc(Cl)c5)c4)CC3)C2=O)C(=O)N1` [Compound A350, (S)-3-(1′-((1-((3-chlorophenyl)sulfonyl)-1H-pyrazol-4-yl)methyl)-6-oxo-6,8-dihydro-2H,7H-spiro[furo[2,3-e]isoindole-3,4′-piperidin]-7-yl)piperidine-2,6-dione], the Dmax lay within 60 to 80%.

For the molecule `O=C1CCC(N2Cc3c(ccc4c3OCC43CCN(Cc4cnn(C5CC5)c4)CC3)C2=O)C(=O)N1` (stereo not drawn) [Compound A230, 3-(1′-((1-cyclopropyl-1H-pyrazol-4-yl)methyl)-6-oxo-6,8-dihydro-2H,7H-spiro[furo[2,3-e]isoindole-3,4′-piperidin]-7-yl)piperidine-2,6-dione], the 50% degradation concentration (DC50) is above 500 nM and the Dmax fell in the range of 40 to 60%.

`O=C1CC[C@H](N2Cc3c(ccc4c3OCC43CCN(Cc4cnn(S(=O)(=O)c5ccc(F)c(F)c5)c4)CC3)C2=O)C(=O)N1` [Compound A353, (S)-3-(1′-((1-((3,4-difluorophenyl)sulfonyl)-1H-pyrazol-4-yl)methyl)-6-oxo-6,8-dihydro-2H,7H-spiro[furo[2,3-e]isoindole-3,4′-piperidin]-7-yl)piperidine-2,6-dione]: the Dmax is 40 to 60%.

For `O=C1CCC(N2Cc3c(ccc4c3OCC43CCN(Cc4ccn(-c5ccc(Cl)cc5)n4)CC3)C2=O)C(=O)N1` (stereo not drawn) [Compound A243, 3-(1′-((1-(4-chlorophenyl)-1H-pyrazol-3-yl)methyl)-6-oxo-6,8-dihydro-2H,7H-spiro[furo[2,3-e]isoindole-3,4′-piperidin]-7-yl)piperidine-2,6-dione], the DC50 lay within 50 to 200 nM and the Dmax lay in the range of 60 to 80%.

Consider `O=C1CCC(N2Cc3c(ccc4c3OCC43CCN(C[C@H]4C[C@H](Oc5ccc(F)cc5)C4)CC3)C2=O)C(=O)N1` (stereo partly drawn) [Compound A351, 3-(1′-(((1r,3r)-3-(4-fluorophenoxy)cyclobutyl)methyl)-6-oxo-6,8-dihydro-2H,7H-spiro[furo[2,3-e]isoindole-3,4′-piperidin]-7-yl)piperidine-2,6-dione], for which the DC50 was above 500 nM and the Dmax lay in the range of 40 to 60%.

For `O=C1CCC(N2Cc3c(ccc4c3OCC43CCN(Cc4cnn(S(=O)(=O)c5ccccc5F)c4)CC3)C2=O)C(=O)N1` (stereo not drawn) [Compound A337, 3-(1′-((1-((2-fluorophenyl)sulfonyl)-1H-pyrazol-4-yl)methyl)-6-oxo-6,8-dihydro-2H,7H-spiro[furo[2,3-e]isoindole-3,4′-piperidin]-7-yl)piperidine-2,6-dione], the DC50 was 50 to 200 nM and the Dmax was in the range of 60 to 80%.

As to `O=C1CCC(N2Cc3c(ccc4c3OCC43CCN(Cc4nn(CC5CCCCC5)c5ccccc45)CC3)C2=O)C(=O)N1` (stereo not drawn) [Compound A329, 3-(1′-((1-(cyclohexylmethyl)-1H-indazol-3-yl)methyl)-6-oxo-6,8-2H,7H-spiro[furo[2,3-e]isoindole-3,4′-piperidin]-7-yl)piperidine-2,6-dione], the DC50 was 50 to 200 nM and the greatest degradation seen (Dmax) was in the range of 60 to 80%.

`O=C1CCC(N2Cc3c(ccc4c3OCC43CCN(Cc4cccc(OCc5ccccn5)c4)CC3)C2=O)C(=O)N1` (stereo not drawn) [Compound A135, 3-(6-oxo-1′-(3-(pyridin-2-ylmethoxy)benzyl)-6,8-dihydro-2H,7H-spiro[furo[2,3-e]isoindole-3,4′-piperidin]-7-yl)piperidine-2,6-dione]: the DC50 was below 50 nM and the Dmax was in the range of 60 to 80%.

Regarding `CC1(C)CCC(CN2CCC3(CC2)COc2c3ccc3c2CN(C2CCC(=O)NC2=O)C3=O)CC1` (stereo not drawn) [Compound A19, 3-(1′-((4,4-dimethylcyclohexyl)methyl)-6-oxo-6,8-dihydro-2H,7H-spiro[furo[2,3-e]isoindole-3,4′-piperidin]-7-yl)piperidine-2,6-dione], the DC50 is above 500 nM and the Dmax is below 40%.

Take `COCn1cc(-c2cccc(CN3CCC4(CC3)COc3c4ccc4c3CN([C@H]3CCC(=O)NC3=O)C4=O)c2)cn1` [Compound A294, (S)-3-(1′-(3-(1-(methoxymethyl)-1H-pyrazol-4-yl)benzyl)-6-oxo-6,8-dihydro-2H,7H-spiro[furo[2,3-e]isoindole-3,4′-piperidin]-7-yl)piperidine-2,6-dione]: the DC50 was below 50 nM and the Dmax was 60 to 80%.

For `O=C1CCC(N2Cc3c(ccc4c3OCC43CCN(Cc4cccc(-c5ccccn5)c4)CC3)C2=O)C(=O)N1` (stereo not drawn) [Compound A103, 3-(6-oxo-1′-(3-(pyridin-2-yl)benzyl)-6,8-dihydro-2H,7H-spiro[furo[2,3-e]isoindole-3,4′-piperidin]-7-yl)piperidine-2,6-dione], the DC50 fell in the range of 200 to 500 nM and the Dmax was 40 to 60%.

On to `O=C1CCC(N2Cc3c(ccc4c3OCC43CCN(CC4(c5ccccc5)CC4)CC3)C2=O)C(=O)N1` (stereo not drawn) [Compound A333, 3-(6-oxo-1′-((1-phenylcyclopropyl)methyl)-6,8-dihydro-2H,7H-spiro[furo[2,3-e]isoindole-3,4′-piperidin]-7-yl)piperidine-2,6-dione], for which the DC50 is above 500 nM and the Dmax lay within 40 to 60%.

With `Cc1c2ccc(CN3CCC4(CC3)COc3c4ccc4c3CN([C@H]3CCC(=O)NC3=O)C4=O)cc2nn1C` [Compound A295, (S)-3-(1′-((2,3-dimethyl-2H-indazol-6-yl)methyl)-6-oxo-6,8-dihydro-2H,7H-spiro[furo[2,3-e]isoindole-3,4′-piperidin]-7-yl)piperidine-2,6-dione], the DC50 is below 50 nM and the Dmax lay in the range of 60 to 80%.

On to `Cn1cc(-c2cccc(CN3CCC4(CC3)CNc3c4ccc4c3CN(C3CCC(=O)NC3=O)C4=O)c2)cn1` (stereo not drawn) [Compound A309, 3-(1-(3-(1-methyl-1H-pyrazol-4-yl)benzyl)-6′-oxo-1′,2′,6′,8′-tetrahydro-7′H-spiro[piperidine-4,3′-pyrrolo[3,4-g]indol]-7′-yl)piperidine-2,6-dione], for which the half-maximal degradation concentration (DC50) is above 500 nM and the Dmax is 40 to 60%.

The values above are taken from US20250215012A1, “IKZF2 DEGRADERS AND USES THEREOF” (REGENTS OF THE UNIVERSITY OF MICHIGAN, priority 2022, published 2025).
